Source: ChEMBL document CHEMBL1697731, “Cheminformatics analysis of assertions mined from literature that describe drug-induced liver injury in different species” (Chem Res Toxicol, 2010)

What was measured:
Hepatotoxicity [1] = assay: Literature-mined compound from Fourches et al multi-species drug-induced liver injury (DILI) dataset, effect in humans; conditions: human
Hepatotoxicity [2] = assay: Literature-mined compound from Fourches et al multi-species drug-induced liver injury (DILI) dataset, effect in non-rodents
Hepatotoxicity [3] = assay: Literature-mined compound from Fourches et al multi-species drug-induced liver injury (DILI) dataset, effect in rodents; conditions: rodentia

## Nc1ccc(S(N)(=O)=O)cc1 [SULFANILAMIDE]
Hepatotoxicity [1]; Liver
  Hepatotoxicity: drug-induced liver injury reported
Hepatotoxicity [2]; Liver
  Hepatotoxicity: no drug-induced liver injury reported
Hepatotoxicity [3]; Liver
  Hepatotoxicity: no drug-induced liver injury reported

## COP(=O)(OC)C(O)C(Cl)(Cl)Cl (stereo unspecified) [TRICHLORFON]
Hepatotoxicity [1]
  Hepatotoxicity: no drug-induced liver injury reported
Hepatotoxicity [2]
  Hepatotoxicity: no drug-induced liver injury reported
Hepatotoxicity [3]
  Hepatotoxicity: drug-induced liver injury reported

## CCOC(=O)CN[C@@H](C(=O)N1CC[C@H]1C(=O)NCc1ccc(/C(N)=N\O)cc1)C1CCCCC1 [XIMELAGATRAN]
Hepatotoxicity [1]
  Hepatotoxicity: drug-induced liver injury reported
Hepatotoxicity [2]
  Hepatotoxicity: no drug-induced liver injury reported
Hepatotoxicity [3]
  Hepatotoxicity: no drug-induced liver injury reported

## O=C(O)[C@H]1/C(=C/CO)O[C@@H]2CC(=O)N21 [CLAVULANIC ACID]
Hepatotoxicity [1]
  Hepatotoxicity: drug-induced liver injury reported
Hepatotoxicity [2]
  Hepatotoxicity: no drug-induced liver injury reported
Hepatotoxicity [3]
  Hepatotoxicity: no drug-induced liver injury reported

## Cl.N=C(N)N [GUANIDINE HYDROCHLORIDE]
Hepatotoxicity [1]
  Hepatotoxicity: drug-induced liver injury reported
Hepatotoxicity [2]
  Hepatotoxicity: no drug-induced liver injury reported
Hepatotoxicity [3]
  Hepatotoxicity: drug-induced liver injury reported

## CO[C@H](C(=O)[C@@H](O)[C@@H](C)O)[C@@H]1Cc2cc3cc(O[C@H]4C[C@@H](O[C@H]5C[C@@H](O)[C@H](O)[C@@H](C)O5)[C@H](O)[C@@H](C)O4)c(C)c(O)c3c(O)c2C(=O)[C@H]1O[C@H]1C[C@@H](O[C@H]2C[C@@H](O[C@H]3C[C@](C)(O)[C@H](O)[C@@H](C)O3)[C@@H](O)[C@@H](C)O2)[C@H](O)[C@@H](C)O1 [PLICAMYCIN]
Hepatotoxicity [1]
  Hepatotoxicity: drug-induced liver injury reported
Hepatotoxicity [2]
  Hepatotoxicity: no drug-induced liver injury reported
Hepatotoxicity [3]
  Hepatotoxicity: drug-induced liver injury reported

## CC[C@H]1OC(=O)[C@H](C)[C@@H](O[C@H]2C[C@@](C)(OC)[C@@H](O)[C@H](C)O2)[C@H](C)[C@@H](O[C@@H]2O[C@H](C)C[C@H](N(C)C)[C@H]2O)[C@](C)(O)C[C@@H](C)CN(C)[C@H](C)[C@@H](O)[C@]1(C)O [AZITHROMYCIN]
Hepatotoxicity [1]
  Hepatotoxicity: drug-induced liver injury reported
Hepatotoxicity [2]
  Hepatotoxicity: no drug-induced liver injury reported
Hepatotoxicity [3]
  Hepatotoxicity: no drug-induced liver injury reported

## CC(C)NCC(O)c1ccc(O)c(O)c1 (stereo unspecified) [ISOPROTERENOL]
Hepatotoxicity [1]; Liver
  Hepatotoxicity: drug-induced liver injury reported
Hepatotoxicity [2]; Liver
  Hepatotoxicity: drug-induced liver injury reported
Hepatotoxicity [3]; Liver
  Hepatotoxicity: drug-induced liver injury reported

## Cc1cn([C@H]2C=C[C@@H](CO)O2)c(=O)[nH]c1=O [STAVUDINE]
Hepatotoxicity [1]
  Hepatotoxicity: drug-induced liver injury reported
Hepatotoxicity [2]
  Hepatotoxicity: no drug-induced liver injury reported
Hepatotoxicity [3]
  Hepatotoxicity: drug-induced liver injury reported

## CC(N/C(=N\C#N)Nc1ccncc1)C(C)(C)C (stereo unspecified) [PINACIDIL ANHYDROUS]
Hepatotoxicity [1]
  Hepatotoxicity: drug-induced liver injury reported
Hepatotoxicity [2]
  Hepatotoxicity: no drug-induced liver injury reported
Hepatotoxicity [3]
  Hepatotoxicity: drug-induced liver injury reported

## CCOC(=O)C1(c2ccccc2)CCN(C)CC1 [MEPERIDINE]
Hepatotoxicity [1]
  Hepatotoxicity: drug-induced liver injury reported
Hepatotoxicity [2]
  Hepatotoxicity: no drug-induced liver injury reported
Hepatotoxicity [3]
  Hepatotoxicity: no drug-induced liver injury reported

## NNc1nnc(NN)c2ccccc12 [DIHYDRALAZINE]
Hepatotoxicity [1]
  Hepatotoxicity: drug-induced liver injury reported
Hepatotoxicity [2]
  Hepatotoxicity: no drug-induced liver injury reported
Hepatotoxicity [3]
  Hepatotoxicity: drug-induced liver injury reported

## Clc1ccc(COC(Cn2ccnc2)c2ccc(Cl)cc2Cl)c(Cl)c1 (stereo unspecified) [MICONAZOLE]
Hepatotoxicity [1]
  Hepatotoxicity: drug-induced liver injury reported
Hepatotoxicity [2]
  Hepatotoxicity: no drug-induced liver injury reported
Hepatotoxicity [3]
  Hepatotoxicity: drug-induced liver injury reported

## CN1C(=O)[C@@H](NC(=O)c2cc3ccccc3[nH]2)N=C(c2ccccc2)c2ccccc21 [DEVAZEPIDE]
Hepatotoxicity [1]
  Hepatotoxicity: no drug-induced liver injury reported
Hepatotoxicity [2]
  Hepatotoxicity: no drug-induced liver injury reported
Hepatotoxicity [3]
  Hepatotoxicity: drug-induced liver injury reported

## CC1(C)CC(=O)N(CCCCN2CCN(c3ncccn3)CC2)C(=O)C1 [GEPIRONE]
Hepatotoxicity [1]
  Hepatotoxicity: drug-induced liver injury reported
Hepatotoxicity [2]
  Hepatotoxicity: no drug-induced liver injury reported
Hepatotoxicity [3]
  Hepatotoxicity: no drug-induced liver injury reported

## Sc1ncnc2nc[nH]c12 [MERCAPTOPURINE ANHYDROUS]
Hepatotoxicity [1]; Liver
  Hepatotoxicity: drug-induced liver injury reported
Hepatotoxicity [2]; Liver
  Hepatotoxicity: no drug-induced liver injury reported
Hepatotoxicity [3]; Liver
  Hepatotoxicity: drug-induced liver injury reported

## CCC(=O)O[C@](Cc1ccccc1)(c1ccccc1)[C@H](C)CN(C)C [PROPOXYPHENE]
Hepatotoxicity [1]
  Hepatotoxicity: drug-induced liver injury reported
Hepatotoxicity [2]
  Hepatotoxicity: no drug-induced liver injury reported
Hepatotoxicity [3]
  Hepatotoxicity: drug-induced liver injury reported

## Cc1cccc(C)c1NC(=O)C1CCCCN1C (stereo unspecified) [MEPIVACAINE]
Hepatotoxicity [1]
  Hepatotoxicity: no drug-induced liver injury reported
Hepatotoxicity [2]
  Hepatotoxicity: no drug-induced liver injury reported
Hepatotoxicity [3]
  Hepatotoxicity: drug-induced liver injury reported

## COc1ccc(O)cc1 [MEQUINOL]
Hepatotoxicity [1]
  Hepatotoxicity: no drug-induced liver injury reported
Hepatotoxicity [2]
  Hepatotoxicity: no drug-induced liver injury reported
Hepatotoxicity [3]
  Hepatotoxicity: drug-induced liver injury reported

## CC(=O)O[C@]1(C(C)=O)CC[C@H]2[C@@H]3C=C(Cl)C4=CC(=O)CC[C@]4(C)[C@H]3CC[C@@]21C [CHLORMADINONE ACETATE]
Hepatotoxicity [1]
  Hepatotoxicity: drug-induced liver injury reported
Hepatotoxicity [2]
  Hepatotoxicity: drug-induced liver injury reported
Hepatotoxicity [3]
  Hepatotoxicity: drug-induced liver injury reported

## CC(C)NCC(O)COc1ccc(CC(N)=O)cc1 (stereo unspecified) [ATENOLOL]
Hepatotoxicity [1]; Liver
  Hepatotoxicity: drug-induced liver injury reported
Hepatotoxicity [2]; Liver
  Hepatotoxicity: no drug-induced liver injury reported
Hepatotoxicity [3]; Liver
  Hepatotoxicity: no drug-induced liver injury reported

## COc1ccccc1OCCNCC(O)COc1cccc2[nH]c3ccccc3c12 (stereo unspecified) [CARVEDILOL]
Hepatotoxicity [1]
  Hepatotoxicity: drug-induced liver injury reported
Hepatotoxicity [2]
  Hepatotoxicity: no drug-induced liver injury reported
Hepatotoxicity [3]
  Hepatotoxicity: drug-induced liver injury reported

## COC(=O)[C@H]1[C@@H](OC(=O)c2ccccc2)C[C@@H]2CC[C@H]1N2C [COCAINE]
Hepatotoxicity [1]
  Hepatotoxicity: drug-induced liver injury reported
Hepatotoxicity [2]
  Hepatotoxicity: no drug-induced liver injury reported
Hepatotoxicity [3]
  Hepatotoxicity: drug-induced liver injury reported

## NC[C@@H]1O[C@H](O[C@H]2[C@@H](O)[C@H](O[C@@H]3[C@@H](O)[C@H](N)C[C@H](N)[C@H]3O[C@H]3O[C@H](CO)[C@@H](O)[C@H](O)[C@H]3N)O[C@@H]2CO)[C@H](N)[C@@H](O)[C@@H]1O [PAROMOMYCIN]
Hepatotoxicity [1]
  Hepatotoxicity: no drug-induced liver injury reported
Hepatotoxicity [2]
  Hepatotoxicity: no drug-induced liver injury reported
Hepatotoxicity [3]
  Hepatotoxicity: drug-induced liver injury reported

## CN(C)C(=N)N=C(N)N [METFORMIN]
Hepatotoxicity [1]; Liver
  Hepatotoxicity: drug-induced liver injury reported
Hepatotoxicity [2]; Liver
  Hepatotoxicity: drug-induced liver injury reported
Hepatotoxicity [3]; Liver
  Hepatotoxicity: drug-induced liver injury reported

## Oc1ncnc2[nH]ncc12 [ALLOPURINOL]
Hepatotoxicity [1]
  Hepatotoxicity: drug-induced liver injury reported
Hepatotoxicity [2]
  Hepatotoxicity: no drug-induced liver injury reported
Hepatotoxicity [3]
  Hepatotoxicity: drug-induced liver injury reported

## CC(C(=O)O)c1cccc(C(=O)c2ccccc2)c1 (stereo unspecified) [KETOPROFEN]
Hepatotoxicity [1]
  Hepatotoxicity: drug-induced liver injury reported
Hepatotoxicity [2]
  Hepatotoxicity: no drug-induced liver injury reported
Hepatotoxicity [3]
  Hepatotoxicity: no drug-induced liver injury reported

## Nc1ncnc2c1ncn2[C@@H]1O[C@H](CO)[C@@H](O)[C@@H]1O [VIDARABINE]
Hepatotoxicity [1]
  Hepatotoxicity: drug-induced liver injury reported
Hepatotoxicity [2]
  Hepatotoxicity: no drug-induced liver injury reported
Hepatotoxicity [3]
  Hepatotoxicity: drug-induced liver injury reported

## COc1cnc(NS(=O)(=O)c2ccc(N)cc2)nc1
Hepatotoxicity [1]
  Hepatotoxicity: drug-induced liver injury reported
Hepatotoxicity [2]
  Hepatotoxicity: no drug-induced liver injury reported
Hepatotoxicity [3]
  Hepatotoxicity: no drug-induced liver injury reported

## O=c1[nH]c(=O)c2c[nH]nc2[nH]1 [OXYPURINOL]
Hepatotoxicity [1]
  Hepatotoxicity: no drug-induced liver injury reported
Hepatotoxicity [2]
  Hepatotoxicity: no drug-induced liver injury reported
Hepatotoxicity [3]
  Hepatotoxicity: drug-induced liver injury reported

## CCOC(=O)/C=C(C)/C=C/C=C(C)/C=C/c1c(C)cc(OC)c(C)c1C [ETRETINATE]
Hepatotoxicity [1]
  Hepatotoxicity: drug-induced liver injury reported
Hepatotoxicity [2]
  Hepatotoxicity: no drug-induced liver injury reported
Hepatotoxicity [3]
  Hepatotoxicity: no drug-induced liver injury reported

## O=C1c2c(O)cccc2Cc2cccc(O)c21 [ANTHRALIN]
Hepatotoxicity [1]
  Hepatotoxicity: drug-induced liver injury reported
Hepatotoxicity [2]
  Hepatotoxicity: no drug-induced liver injury reported
Hepatotoxicity [3]
  Hepatotoxicity: drug-induced liver injury reported

## COC1=C2C[C@@H](C)C[C@H](OC)[C@H](O)[C@@H](C)/C=C(\C)[C@H](OC(N)=O)[C@@H](OC)/C=C\C=C(/C)C(=O)NC(=CC1=O)C2=O [GELDANAMYCIN]
Hepatotoxicity [1]
  Hepatotoxicity: drug-induced liver injury reported
Hepatotoxicity [2]
  Hepatotoxicity: no drug-induced liver injury reported
Hepatotoxicity [3]
  Hepatotoxicity: no drug-induced liver injury reported

## N#Cc1cc(NC(=O)C(=O)O)c(Cl)c(NC(=O)C(=O)O)c1.NC(CO)(CO)CO
Hepatotoxicity [1]
  Hepatotoxicity: no drug-induced liver injury reported
Hepatotoxicity [2]
  Hepatotoxicity: no drug-induced liver injury reported
Hepatotoxicity [3]
  Hepatotoxicity: drug-induced liver injury reported

## CCc1cc(C(N)=S)ccn1 [ETHIONAMIDE]
Hepatotoxicity [1]; Liver
  Hepatotoxicity: drug-induced liver injury reported
Hepatotoxicity [2]; Liver
  Hepatotoxicity: no drug-induced liver injury reported
Hepatotoxicity [3]; Liver
  Hepatotoxicity: drug-induced liver injury reported

## C[C@@H](O)[C@H]1C(=O)N2C(C(=O)O)=C(S[C@@H]3CN[C@H](C(=O)N(C)C)C3)[C@H](C)[C@H]12 [MEROPENEM]
Hepatotoxicity [1]
  Hepatotoxicity: drug-induced liver injury reported
Hepatotoxicity [2]
  Hepatotoxicity: no drug-induced liver injury reported
Hepatotoxicity [3]
  Hepatotoxicity: no drug-induced liver injury reported

## COc1ccc2c(c1)[C@]13CCCC[C@@H]1[C@H](C2)N(C)CC3 [DEXTROMETHORPHAN]
Hepatotoxicity [1]
  Hepatotoxicity: drug-induced liver injury reported
Hepatotoxicity [2]
  Hepatotoxicity: no drug-induced liver injury reported
Hepatotoxicity [3]
  Hepatotoxicity: no drug-induced liver injury reported
